Results: patent publication US20220257595A1, “MACITENTAN FOR USE IN TREATING PORTOPULMONARY HYPERTENSION” (ACTELION PHARMACEUTICALS LTD, priority 2019, published 2022)

Experiment: PORTICO PK substudy: steady-state plasma macitentan and ACT-132577
Format: in vivo, human
Experimental: It was planned to enroll at least 20 patients who were on steady-state treatment with macitentan (i.e., at least 4 weeks) into the PK substudy. The substudy was conducted in consenting patients from all centers across all regions who agreed to participate. The substudy consisted of the following periods:
PK assessments period: PK assessments were to be performed after OL study treatment had been taken for at least 4 weeks. The substudy comprised two visits (Day 1: Enrollment and Day 2: Conclusion). See, FIG. 2. Subject eligibility was first checked on Day 1 of the PK substudy prior to the start of assessments.
PK substudy: On Day 1 of the PK substudy, the study treatment was required to be taken directly after the pre-dose blood sample. On Day 2 of the PK substudy, study treatment was required to be taken after the collection of the last PK blood sample (24 hours post Day 1 dose).
F3. Pharmacokinetic Endpoints for Macitentan and its Active Metabolite ACT-132577 • The area under the plasma concentration-time curve during one dosing interval (AUCt). • Maximum plasma concentration (Cmax) during a dosing interval. • The time to reach maximum plasma concentration (tmax) during a dosing interval.
(i) Timing for sampling: For the PK assessment, blood samples were drawn at the following time points: • PK substudy Day 1: Immediately before study treatment administration in the morning (pre-dose) and 1 h, 3 h, 5 h, 6 h, 7 h, 8 h, 9 h, 10 h, 12 h, and 14 h post-dose. • PK substudy Day 2: 24 h post-dose.
(iii) Bioanalysis: A validated liquid chromatography coupled to mass spectrometry method was used for determining the concentrations of macitentan and its metabolite ACT-132577 in plasma. The limit of quantification (LOQ) for both analytes was 1 ng/mL.
The measured individual plasma concentrations of macitentan and its metabolite ACT-132577 were used to directly obtain Cmax and tmax. AUCT was calculated according to the linear trapezoidal rule using the measured concentration-time values above the LOQ during one dosing interval. The PK variables were calculated on the basis of the real (actual) blood sampling time points. For mean value calculations, all values below the LOQ (below the limit of quantification (BLQ) values) were set to zero if ≤50% of the values at a given time point were BLQ. If >50% of the values at a given time point were BLQ, no mean value was calculated. Mean concentration-time profiles were generated using these criteria. The individual and mean plasma concentration-time profiles were plotted on a linear scale. The derived PK variables for macitentan and ACT-132577 (AUCT, Cmax, tmax) are listed by patient. Plasma concentrations per time point were summarized using arithmetic mean, minimum, median, maximum, standard deviation (SD), standard error (SE), and two-sided 95% confidence interval of the mean. […] (*For tmax the geometric mean and its 95% confidence interval were not calculated).

NS(=O)(=O)Nc1ncnc(OCCOc2ncc(Br)cn2)c1-c1ccc(Br)cc1 [ACT-132577, aprocitentan]
Plasma exposure in PoPH patients compared with other forms of PAH / other macitentan studies: consistent between PoPH patients and patients with other forms of PAH | Trough plasma concentration, mean±SD (OL macitentan 10 mg o.d. at least 4 weeks, PoPH patients, n=8): 737.4 ± 190.0 ng/mL | Cmax (human, plasma, oral, macitentan 10 mg o.d., PoPH patients, PKS 10 patients, read-out: Cmax, geometric mean (95% confidence interval)): 870 ng/mL | Tmax (human, plasma, oral, macitentan 10 mg o.d., PoPH patients, PKS 10 patients, read-out: tmax, median (range)): 6.5 h | AUCT, geometric mean (95% confidence interval) (one dosing interval, macitentan 10 mg o.d., PoPH patients): 18100.0 ng·h/mL
